Test results taken from patent publication US8507199B2, “Multi-color time resolved fluorophores based on macrocyclic lanthanide complexes” (Lumiphore, Inc., priority 2007, dated 2013).
Where “and” joins values, the source holds several entries; their conditions need not be identical. Equal entries are not always repeated.

Columns and labels:
[1] = Luminescence lifetime decay (biexponential fit) of FITC-Tb-BH22IAM conjugate; assay type: physicochemical; details: Tb-coordinated conjugate, excitation at BH22IAM absorption (~340 nm), emission at 520 nm
Excerpt: A short lifetime corresponding to the direct excitation of fluorescein (3.92 nsec) and a long lifetime corresponding to excitation of BH22IAM and energy transfer to fluorescein (524 nsec).
In another exemplary embodiment, the compounds of the invention emit light at an emission wavelength of the fluorophore attached to the metal chelate through the acceptor-linker. […] For example, compound 3, when coordinated to terbium and excited at a BH22IAM absorption wavelength (˜340 nm), the metal chelate emits at 520 nm, the characteristic wavelength of fluorescein with a lifetime of 524 nsec. The new lifetime is over 100-fold longer than the lifetime for a fluorescein solution that is directly excited (<5 nsec).
The 524 nsec of the conjugated fluorescein is acquired through direct excitation of the Tb-BH22IAM complex at 340 nm, which normally has a very long lifetime (2.6 msec), followed by energy transfer to the conjugated fluorescein and emission at the characteristic wavelength for fluorescein (520 nm).

[2] = Steady-state absorption and emission spectra; assay type: physicochemical
Excerpt: FIG. 8 is a steady-state absorption spectrum of FITC-BH22IAM conjugate.

O=C(O)c1cc(NC(=S)NCCCCC2CN3CCNC(=O)c4cccc(c4O)C(=O)NCCN(CCNC(=O)c4cccc(c4O)C(=O)N2)CCN2CCNC(=O)c4cccc(c4O)C(=O)NCCN(CCNC(=O)c4cccc(c4O)C(=O)NCC2)CC3)ccc1-c1c2ccc(=O)cc-2oc2cc(O)ccc12 (stereo not drawn) [Compound 4a]
long lifetime corresponding to excitation of BH22IAM and energy transfer to fluorescein [1]: 520 nsec and 524 nsec | absorption maxima ([2]; 340 nm assigned to BH22IAM, 490 nm to fluorescein): 340 nm and 490 nm | emission wavelength / emission maxima ([2]; excitation at BH22IAM absorption (~340 nm)): 520 nm
